This passage reports IC50 and Ki results from ChEMBL document CHEMBL1909046, “DrugMatrix in vitro pharmacology data”.

In data set [1] the target is Aldo-keto reductase family 1 member B1 (Rattus norvegicus, UniProt P07943). Type of data set: tissue-based, Lens of camera-type eye.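 Further: inhibition of aldose reductase enzyme activity, measured with DL-glyceraldehyde as the substrate; in other assays of this panel Not Active means under 50% inhibition at 10 µM.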
The target of data set [2] is T1, 5-hydroxytryptamine receptor 2C (Homo sapiens, UniProt P28335).
T1 sequence (P28335 whole entry): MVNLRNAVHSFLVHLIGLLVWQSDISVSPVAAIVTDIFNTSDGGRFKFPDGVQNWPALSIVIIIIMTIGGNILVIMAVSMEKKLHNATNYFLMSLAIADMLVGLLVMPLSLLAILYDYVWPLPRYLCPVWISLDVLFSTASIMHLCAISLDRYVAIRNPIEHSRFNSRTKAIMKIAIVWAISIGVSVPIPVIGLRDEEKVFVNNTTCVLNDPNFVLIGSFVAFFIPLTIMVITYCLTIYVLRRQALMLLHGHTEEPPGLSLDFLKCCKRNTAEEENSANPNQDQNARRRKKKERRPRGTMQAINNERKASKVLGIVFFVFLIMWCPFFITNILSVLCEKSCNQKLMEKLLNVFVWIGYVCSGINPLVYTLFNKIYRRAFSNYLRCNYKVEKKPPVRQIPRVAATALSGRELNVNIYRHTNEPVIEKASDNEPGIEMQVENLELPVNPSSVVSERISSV
Description: DRUGMATRIX: Serotonin (5-Hydroxytryptamine) 5-HT2C radioligand binding (ligand: [3H] Mesulergine). The data set is classed as cell membranes, CHO-K1, Membrane. Particulars: cho-k1; Not Active = under 50% inhibition at 10 µM.

A short description of data set [3]: DRUGMATRIX: Serotonin (5-Hydroxytryptamine) 5-HT3 radioligand binding (ligand: [3H] GR-65630). As to conditions: hek293; Not Active = under 50% inhibition at 10 µM. The data set is classed as cell membranes, Membrane.
Data set [4] in a line: DRUGMATRIX: GABAA, Chloride Channel, TBOB radioligand binding (ligand: [3H] TBOB). Type of data set: cell membranes, Rattus norvegicus, Wistar, Cerebral cortex, Membrane. Particulars: Not Active = under 50% inhibition at 10 µM.
Data set [5] in a line: DRUGMATRIX: Glutamate, NMDA, Agonism radioligand binding (ligand: [3H] CGP-39653). The data set is classed as cell membranes, Rattus norvegicus, Wistar, Cerebral cortex, Membrane. Particulars: Not Active = under 50% inhibition at 10 µM.
The next data set has as its target Insulin receptor (Rattus norvegicus, UniProt P15127). The data set is classed as cell membranes, Wistar, Liver, Membrane. Further: in other assays of this panel Not Active means under 50% inhibition at 10 µM.
Data set [6] can be described thus: DRUGMATRIX: Leukotriene, BLT (LTB4) radioligand binding (ligand: [3H]LTB4). The data set is classed as cell membranes, Membrane. Particulars: u-937; Not Active = under 50% inhibition at 10 µM.
The target in a further data set is T2, Leukotriene C4 synthase (Cavia porcellus, UniProt A6XA80).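 Further: enzyme inhibition assay of leukotriene C4 synthase, using LTA4 as the substrate; in other assays of this panel Not Active means under 50% inhibition at 10 µM.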
T2 sequence (A6XA80 whole entry): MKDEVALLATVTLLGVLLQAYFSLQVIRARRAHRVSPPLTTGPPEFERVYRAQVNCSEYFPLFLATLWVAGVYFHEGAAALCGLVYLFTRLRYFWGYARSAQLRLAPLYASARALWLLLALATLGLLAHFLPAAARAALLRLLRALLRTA
Description: biochemical. The data set is classed as tissue-based, Lung.

The target in a further data set is Melanocortin receptor 3 (Homo sapiens, UniProt P41968). The data set is classed as cell membranes, Membrane. As to conditions: hek293. Further: in other assays of this panel Not Active means under 50% inhibition at 10 µM.
Chain of Melanocortin receptor 3 (P41968 whole entry): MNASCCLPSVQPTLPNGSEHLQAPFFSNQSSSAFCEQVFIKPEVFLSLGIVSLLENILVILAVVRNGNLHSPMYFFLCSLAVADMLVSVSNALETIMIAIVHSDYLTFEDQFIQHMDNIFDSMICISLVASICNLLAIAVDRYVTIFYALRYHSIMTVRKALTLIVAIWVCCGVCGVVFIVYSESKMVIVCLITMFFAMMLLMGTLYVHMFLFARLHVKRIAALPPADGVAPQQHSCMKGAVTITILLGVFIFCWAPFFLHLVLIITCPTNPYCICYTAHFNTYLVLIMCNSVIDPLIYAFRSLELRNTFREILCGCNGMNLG
For data set [7], the target named is T3, Muscarinic acetylcholine receptor M5 (Homo sapiens, UniProt P08912). Further: in other assays of this panel Not Active means under 50% inhibition at 10 µM.
T3 sequence (P08912 whole entry): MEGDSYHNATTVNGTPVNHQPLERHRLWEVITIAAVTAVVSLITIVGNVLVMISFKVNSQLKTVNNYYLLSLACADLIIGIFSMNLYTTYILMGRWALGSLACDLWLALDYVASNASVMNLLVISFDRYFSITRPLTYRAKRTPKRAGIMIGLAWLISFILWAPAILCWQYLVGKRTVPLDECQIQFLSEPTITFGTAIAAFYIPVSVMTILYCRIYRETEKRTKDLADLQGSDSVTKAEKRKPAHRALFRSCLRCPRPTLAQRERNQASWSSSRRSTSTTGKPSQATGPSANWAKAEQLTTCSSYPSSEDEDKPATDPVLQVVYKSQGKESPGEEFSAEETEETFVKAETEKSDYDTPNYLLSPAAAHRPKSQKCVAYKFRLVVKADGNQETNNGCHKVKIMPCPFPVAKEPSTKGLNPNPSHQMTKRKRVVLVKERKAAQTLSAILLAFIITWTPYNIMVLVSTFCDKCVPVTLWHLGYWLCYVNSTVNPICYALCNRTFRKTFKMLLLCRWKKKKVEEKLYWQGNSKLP
The data set is classed as cell membranes, CHO-K1, Membrane. Particulars: cho-k1.

Data set [8] deals with Delta-type opioid receptor (Homo sapiens, UniProt P41143). Type of data set: cell membranes, HEK293, Membrane. Particulars: hek293.
Chain of Delta-type opioid receptor (P41143 whole entry): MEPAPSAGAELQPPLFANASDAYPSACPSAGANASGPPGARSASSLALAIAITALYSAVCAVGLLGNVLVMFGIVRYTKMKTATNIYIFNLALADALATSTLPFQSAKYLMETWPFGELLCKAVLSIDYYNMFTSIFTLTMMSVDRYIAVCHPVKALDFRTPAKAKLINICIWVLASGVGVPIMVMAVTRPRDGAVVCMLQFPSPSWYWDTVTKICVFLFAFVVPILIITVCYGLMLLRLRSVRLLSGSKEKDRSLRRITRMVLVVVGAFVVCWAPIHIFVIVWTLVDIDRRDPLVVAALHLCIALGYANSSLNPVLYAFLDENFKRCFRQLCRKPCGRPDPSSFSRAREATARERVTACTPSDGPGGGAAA
A further data set concerns the target Mu-type opioid receptor (Homo sapiens, UniProt P35372). Description: DRUGMATRIX: Opiate mu (OP3, MOP) radioligand binding (ligand: [3H] Diprenorphine). The data set is classed as cell membranes, CHO-K1, Membrane. As to conditions: cho-k1; Not Active = under 50% inhibition at 10 µM.
For data set [9], the target named is T4, 5-hydroxytryptamine receptor 1A (Rattus norvegicus, UniProt P19327). Further: in other assays of this panel Not Active means under 50% inhibition at 10 µM.
T4 sequence (P19327 whole entry): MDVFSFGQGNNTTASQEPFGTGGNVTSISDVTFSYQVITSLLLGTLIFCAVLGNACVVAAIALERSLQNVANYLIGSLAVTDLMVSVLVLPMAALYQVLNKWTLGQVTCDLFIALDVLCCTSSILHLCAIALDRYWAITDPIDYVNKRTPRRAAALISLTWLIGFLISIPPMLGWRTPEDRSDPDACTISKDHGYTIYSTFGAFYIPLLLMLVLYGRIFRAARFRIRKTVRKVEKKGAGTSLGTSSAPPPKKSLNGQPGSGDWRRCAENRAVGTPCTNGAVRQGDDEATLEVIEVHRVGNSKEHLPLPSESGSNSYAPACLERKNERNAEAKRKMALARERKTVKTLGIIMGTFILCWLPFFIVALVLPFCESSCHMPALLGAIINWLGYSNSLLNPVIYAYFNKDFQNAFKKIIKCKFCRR
Type of data set: cell membranes, CHO-K1, Membrane.

A further data set deals with T5, Cytochrome P450 2A6 (Homo sapiens, UniProt P11509).
T5 sequence (P11509 whole entry): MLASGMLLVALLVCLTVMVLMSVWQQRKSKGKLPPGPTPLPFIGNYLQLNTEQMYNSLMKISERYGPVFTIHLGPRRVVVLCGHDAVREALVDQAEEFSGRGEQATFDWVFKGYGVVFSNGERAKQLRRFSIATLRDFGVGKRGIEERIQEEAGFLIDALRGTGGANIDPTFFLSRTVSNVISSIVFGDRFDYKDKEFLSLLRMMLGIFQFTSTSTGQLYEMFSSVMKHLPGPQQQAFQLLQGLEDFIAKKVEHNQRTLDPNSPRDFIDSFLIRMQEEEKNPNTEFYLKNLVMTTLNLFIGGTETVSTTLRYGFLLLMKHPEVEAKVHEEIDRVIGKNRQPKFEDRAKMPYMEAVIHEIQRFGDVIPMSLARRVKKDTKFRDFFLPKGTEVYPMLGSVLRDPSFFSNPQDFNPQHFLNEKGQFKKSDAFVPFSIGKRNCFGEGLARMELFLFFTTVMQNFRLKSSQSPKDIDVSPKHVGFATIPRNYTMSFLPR
As to conditions: bti-tn-5b1-4.

Chain of Insulin receptor (P15127 27-759 limits assumed): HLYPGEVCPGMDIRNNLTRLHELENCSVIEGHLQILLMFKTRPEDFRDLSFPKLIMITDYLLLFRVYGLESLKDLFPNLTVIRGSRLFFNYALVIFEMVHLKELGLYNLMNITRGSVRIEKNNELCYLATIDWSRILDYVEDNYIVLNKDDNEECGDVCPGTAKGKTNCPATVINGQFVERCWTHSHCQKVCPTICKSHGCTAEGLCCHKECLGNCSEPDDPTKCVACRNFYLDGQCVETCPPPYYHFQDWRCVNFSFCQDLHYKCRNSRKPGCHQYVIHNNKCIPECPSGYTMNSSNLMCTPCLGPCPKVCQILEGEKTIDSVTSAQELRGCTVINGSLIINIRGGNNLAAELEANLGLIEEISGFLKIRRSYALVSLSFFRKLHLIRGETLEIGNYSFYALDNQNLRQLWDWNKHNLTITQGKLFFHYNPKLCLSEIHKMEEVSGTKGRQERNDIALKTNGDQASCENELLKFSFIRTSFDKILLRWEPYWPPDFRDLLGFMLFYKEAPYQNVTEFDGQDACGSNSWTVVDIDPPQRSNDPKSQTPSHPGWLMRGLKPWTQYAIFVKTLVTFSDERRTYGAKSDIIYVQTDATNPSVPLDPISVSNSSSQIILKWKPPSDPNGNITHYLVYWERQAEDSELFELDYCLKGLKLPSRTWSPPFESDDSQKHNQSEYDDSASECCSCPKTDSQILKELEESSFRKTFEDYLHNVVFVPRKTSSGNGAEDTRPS
Chain of Insulin receptor (P15127 764-1383 limits assumed): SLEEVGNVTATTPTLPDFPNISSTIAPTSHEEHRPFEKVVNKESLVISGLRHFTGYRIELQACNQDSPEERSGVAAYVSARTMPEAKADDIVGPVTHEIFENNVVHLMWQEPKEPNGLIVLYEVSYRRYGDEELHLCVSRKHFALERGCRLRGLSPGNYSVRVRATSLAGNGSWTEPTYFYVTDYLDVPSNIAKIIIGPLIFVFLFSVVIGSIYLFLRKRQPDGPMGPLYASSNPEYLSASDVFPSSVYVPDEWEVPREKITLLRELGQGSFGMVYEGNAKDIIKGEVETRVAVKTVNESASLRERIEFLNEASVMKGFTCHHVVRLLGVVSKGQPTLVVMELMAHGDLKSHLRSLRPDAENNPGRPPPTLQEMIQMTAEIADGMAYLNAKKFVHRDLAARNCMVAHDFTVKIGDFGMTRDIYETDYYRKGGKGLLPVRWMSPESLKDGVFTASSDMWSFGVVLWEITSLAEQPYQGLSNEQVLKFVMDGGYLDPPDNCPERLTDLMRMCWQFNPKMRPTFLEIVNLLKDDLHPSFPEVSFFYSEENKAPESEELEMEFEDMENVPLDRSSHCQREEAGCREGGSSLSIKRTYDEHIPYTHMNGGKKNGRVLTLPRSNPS
Chain of Mu-type opioid receptor (P35372 whole entry): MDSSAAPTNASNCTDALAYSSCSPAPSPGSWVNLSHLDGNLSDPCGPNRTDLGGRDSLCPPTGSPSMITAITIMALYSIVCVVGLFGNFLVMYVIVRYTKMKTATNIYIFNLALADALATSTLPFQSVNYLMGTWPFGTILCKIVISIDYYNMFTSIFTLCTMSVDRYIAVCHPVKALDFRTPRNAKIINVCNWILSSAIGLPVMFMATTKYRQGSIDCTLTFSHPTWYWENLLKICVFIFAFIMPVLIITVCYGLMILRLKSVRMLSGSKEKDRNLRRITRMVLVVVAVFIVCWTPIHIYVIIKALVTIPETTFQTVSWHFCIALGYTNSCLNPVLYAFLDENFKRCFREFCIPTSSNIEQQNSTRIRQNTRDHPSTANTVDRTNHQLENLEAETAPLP

One may read the IC50 as the point on the concentration scale where inhibition reaches its midpoint. One may read the Ki as a measure of affinity in units of concentration, obtained from inhibition or displacement. Take `CC(CCc1ccccc1)NCC(O)c1ccc(O)c(C(N)=O)c1` (stereo not given) [LABETALOL]: the IC50 result (in data set [1]; in data set [2]; in [3]; in [4]; in data set [5]; at Insulin receptor) was “Not Active” each time. For the same molecule, the IC50 result (in data set [6]; at Leukotriene C4 synthase; at Melanocortin receptor 3; in data set [7]; in data set [8]; at Mu-type opioid receptor) was “Not Active” each time. Besides, the figures for the half-inhibitory concentration (IC50) (in [9] (read-out: IC50); on Cytochrome P450 2A6) were 393 nM and “Not Active”, respectively. The inhibition constant (Ki) result in [3] was “Not Active”; in data set [4] it was “Not Active”; in data set [5], “Not Active”; in data set [6], “Not Active”; in data set [9] (read-out: Ki), 225 nM; at Cytochrome P450 2A6 it was “Not Active”.

`Nc1nnc(-c2cccc(Cl)c2Cl)c(N)n1` [LAMOTRIGINE]: the IC50 entry (in data set [1]; in data set [2]; in data set [3]; in [4]; in data set [5]; at Insulin receptor) was “Not Active” each time. Besides, the concentration for half-maximal inhibition (IC50) entry (in [6]; at Leukotriene C4 synthase; against Melanocortin receptor 3; in data set [7]; in data set [8]; at Mu-type opioid receptor) was “Not Active” in each case. In addition, the IC50 result (in data set [9] (cho-k1); against Cytochrome P450 2A6) was “Not Active” in each case. Further, the Ki result (in data set [3]; in data set [4]; in data set [5]; in data set [6]; on Cytochrome P450 2A6) was “Not Active” each time.

`CCC[C@@H]1C[C@@H](C(=O)N[C@@H]([C@H]2O[C@H](SC)[C@H](O)[C@@H](O)[C@H]2O)[C@@H](C)O)N(C)C1` [LINCOMYCIN]: the IC50 entry (in data set [1]; in data set [2]; in data set [3]; in data set [4]; in data set [5]; against Insulin receptor) was “Not Active” in each case. The IC50 entry (in data set [6]; on Leukotriene C4 synthase; against Melanocortin receptor 3; in data set [7]; in data set [8]; on Mu-type opioid receptor) was “Not Active” each time. The IC50 entry (in [9] (cho-k1); on Cytochrome P450 2A6) was “Not Active” throughout. Further, the Ki entry (in data set [3]; in data set [4]; in data set [5]; in [6]; at Cytochrome P450 2A6) was “Not Active” throughout.

In the case of `NCCCC[C@H](N[C@@H](CCc1ccccc1)C(=O)O)C(=O)N1CCC[C@H]1C(=O)O` [LISINOPRIL ANHYDROUS], the half-inhibitory concentration (IC50) entry (in data set [1]; in data set [2]; in [3]; in [4]; in [5]; against Insulin receptor) was “Not Active” in each case. Further, the concentration for half-maximal inhibition (IC50) result (in data set [6]; at Leukotriene C4 synthase; against Melanocortin receptor 3; in data set [7]; in data set [8]; on Mu-type opioid receptor) was “Not Active” in each case. For the same molecule, the IC50 result (in [9] (cho-k1); at Cytochrome P450 2A6) was “Not Active” throughout. The inhibitory constant (Ki) result (in data set [3]; in [4]; in data set [5]; in [6]; on Cytochrome P450 2A6) was “Not Active” in each case.

For the molecule `COS(C)(=O)=O` [METHANESULFONIC ACID METHYL ESTER], the 50% inhibitory concentration (IC50) result (in data set [1]; in [2]; in data set [3]; in [4]; in data set [5]; against Insulin receptor) was “Not Active” each time. Further, the half-inhibitory concentration (IC50) entry (in [6]; at Leukotriene C4 synthase; against Melanocortin receptor 3; in [7]; in data set [8]; on Mu-type opioid receptor) was “Not Active” each time. Moreover, the IC50 entry (in data set [9] (cho-k1); against Cytochrome P450 2A6) was “Not Active” each time. For the same molecule, the inhibitory constant (Ki) entry (in [3]; in data set [4]; in [5]; in data set [6]; at Cytochrome P450 2A6) was “Not Active” each time.

On to `COC(=O)c1ccc(O)cc1` [METHYLPARABEN], for which the IC50 entry (in data set [1]; in data set [2]; in data set [3]; in data set [4]; in data set [5]; on Insulin receptor) was “Not Active” throughout. Also, the IC50 entry (in data set [6]; against Leukotriene C4 synthase; at Melanocortin receptor 3; in data set [7]; in data set [8]; at Mu-type opioid receptor) was “Not Active” each time. In addition, the 50% inhibitory concentration (IC50) result (in data set [9] (cho-k1); on Cytochrome P450 2A6) was “Not Active” each time. Besides, the Ki result (in data set [3]; in data set [4]; in [5]; in data set [6]; at Cytochrome P450 2A6) was “Not Active” throughout.
